Reference: patent US20250092065A1, “2-(INDAZOL-5-YL)-6-(PIPERIDIN-4-YL)-1,7-NAPHTHYRIDINE DERIVATIVES AND RELATED COMPOUNDS AS MODULATORS FOR SPLICING NUCLEIC ACIDS AND FOR THE TREATMENT OF PROLIFERATIVE DISEASES” (REMIX THERAPEUTICS INC., priority 2022, published 2025)
Where two headings read alike, the source gives them in different places.

Legend:
Type in all cases: cell-based, human
[1] = tested on: HTT mRNA; experiment: RT-qPCR splicing assay, HTT mRNA canonical (CJ) and alternative (AJ) junction; details: Homo sapiens; for AC50: HTT alternative junction mRNA, read-out: HTT AJ (increase in AJ mRNA, AC50)
Procedure, shortened: (§1)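 A673 or K562 cells treated 24 h at 37 °C with 11-point 3-fold dilutions (top final 10 uM, DMSO ≤0.25%). Lysates analysed by one-step RT-qPCR for canonical (CJ) and alternative-exon (AJ) junctions, normalized to GAPDH, GUSB or PPIA. ΔΔCt vs DMSO, RQ = 2^(−ΔΔCt), expressed as percentage response.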

[2] = tested on: MYB mRNA; experiment: RT-qPCR splicing assay, MYB mRNA canonical (CJ) and alternative (AJ) junction; details: Homo sapiens; for AC50: MYB alternative junction mRNA, read-out: MYB AJ (increase in AJ mRNA, AC50)
Procedure, shortened: as §1

[3] = tested on: MYB; experiment: HiBiT protein abundance assay, MYB (K562 HiBiT knock-in); details: HiBiT knock-in K562 cells, 24 hours, top dose 10 μM
Procedure, shortened: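 K562 HiBiT knock-in, 24 h, 37 °C, top 10 μM final, 3-fold ×10, DMSO ≤0.25%. Lytic HiBiT luminescence; PC = parental K562, NC = DMSO; 4PL IC50.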

[4] = tested on: SMN2 mRNA; experiment: RT-qPCR splicing assay, SMN2 mRNA; details: Homo sapiens, canonical junction qPCR panel, Table 4; read-out: SMN2 IC50 (decrease in CJ mRNA levels)
Procedure, shortened: as §1

[5] = HTT canonical junction mRNA, RT-qPCR, read-out: HTT CJ (decrease in CJ mRNA levels, IC50)
[6] = canonical junction qPCR panel, Table 4, read-out: HTT IC50 (decrease in CJ mRNA levels)
[7] = MYB canonical junction mRNA, RT-qPCR, read-out: MYB CJ (decrease in CJ mRNA levels, IC50)
[8] = canonical junction qPCR panel, Table 4, read-out: MYB IC50 (decrease in CJ mRNA levels)

IC50 [1, 5] | IC50 [1, 6] | IC50 [2, 7] | IC50 [2, 8] | IC50 [3] | IC50 [4] | SMILES | AC50 ([1]; RT-qPCR) | AC50 ([2]; RT-qPCR)
100 to 1000 nM | 100 to 1000 nM | 100 to 1000 nM | 100 to 1000 nM | < 100 nM | < 100 nM | Cc1nc2cc(O)c(-c3ccc4cc(N5CC[C@@H](NC(C)(C)C)C5)ncc4n3)cc2o1 [Compound 417] | 1000 to 10000 nM | 100 to 1000 nM
100 to 1000 nM | 100 to 1000 nM | 100 to 1000 nM | 100 to 1000 nM | 100 to 1000 nM | < 100 nM | Cc1nc2cc(O)c(-c3ccc4nc(N5C[C@@H](C)N[C@@H](C)C5)ccc4n3)cc2o1 [Compound 420] | 1000 to 10000 nM | 100 to 1000 nM
100 to 1000 nM | 100 to 1000 nM | 100 to 1000 nM | 100 to 1000 nM | 100 to 1000 nM | 100 to 1000 nM | Cc1nc2cc(O)c(-c3ccc4nc(N5CCN[C@H](C6CC6)C5)ccc4n3)cc2o1 [Compound 421] | 100 to 1000 nM | 100 to 1000 nM
100 to 1000 nM | 100 to 1000 nM | 100 to 1000 nM | 100 to 1000 nM | 100 to 1000 nM | < 100 nM | Cc1nc2cc(O)c(-c3ccc4nc(N5CCN[C@@H](C(C)C)C5)ccc4n3)cc2o1 [Compound 422] | 100 to 1000 nM | 100 to 1000 nM
1000 to 10000 nM | 1000 to 10000 nM | 1000 to 10000 nM | 1000 to 10000 nM | 1000 to 10000 nM | < 100 nM | Cc1nc2cc(O)c(-c3ccc4nc(N5CCC(N)CC5)ccc4n3)cc2o1 [Compound 424] | 1000 to 10000 nM | 1000 to 10000 nM
1000 to 10000 nM | 1000 to 10000 nM | 1000 to 10000 nM | 1000 to 10000 nM | 1000 to 10000 nM | 100 to 1000 nM | CNC1CCN(c2ccc3nc(-c4cc5oc(C)nc5cc4O)ccc3n2)CC1 [Compound 425] | 1000 to 10000 nM | 1000 to 10000 nM

The remaining lines, values behind:

SMILES | IC50 [1, 5] | IC50 [1, 6] | IC50 [2, 7] | IC50 [2, 8] | IC50 [3] | IC50 [4] | AC50 ([1]; RT-qPCR) | AC50 ([2]; RT-qPCR)
Cc1nc2cc(O)c(-c3ccc4nc(N5CC[C@@H](NC(C)(C)C)C5)ncc4n3)cc2o1 [Compound 413, 6-{2-[(3R)-3-(tert-butylamino)pyrrolidin-1-yl]pyrido[3,2-d]pyrimidin-6-yl}-2-methyl-1,3-benzoxazol-5-ol] | < 100 nM | < 100 nM | < 100 nM | < 100 nM | < 100 nM | < 100 nM | < 100 nM | < 100 nM
Cc1nc2cc(O)c(-c3ccc4nc(N5CC[C@H](NC(C)(C)C)C5)ncc4n3)cc2o1 [Compound 414, 6-{2-[(3S)-3-(tert-butylamino)pyrrolidin-1-yl]pyrido[3,2-d]pyrimidin-6-yl}-2-methyl-1,3-benzoxazol-5-ol] | < 100 nM | < 100 nM | 1000 to 10000 nM | 1000 to 10000 nM | 1000 to 10000 nM | 100 to 1000 nM | 100 to 1000 nM | 1000 to 10000 nM
Cc1nc2c(C)c(O)c(-c3ccc4nc(N5CC[C@H](NC(C)C)C5)ncc4n3)cc2o1 [Compound 416, 6-{2-[(3S)-3-(isopropylamino)pyrrolidin-1-yl]pyrido[3,2-d]pyrimidin-6-yl}-2,4-dimethyl-1,3-benzoxazol-5-ol] | < 100 nM | < 100 nM | < 100 nM | < 100 nM | < 100 nM | < 100 nM | < 100 nM | < 100 nM
Cc1nc2cc(O)c(-c3ccc4nc(N5CCN[C@@H](C6CC6)C5)ccc4n3)cc2o1 [Compound 418] | 100 to 1000 nM | 100 to 1000 nM | 100 to 1000 nM | 100 to 1000 nM | 100 to 1000 nM | 100 to 1000 nM | 100 to 1000 nM | 100 to 1000 nM
Cc1nc2cc(O)c(-c3ccc4nc(N5C[C@@H](C)N[C@@H](C6CC6)C5)ccc4n3)cc2o1 [Compound 419] | 100 to 1000 nM | 100 to 1000 nM | 100 to 1000 nM | 100 to 1000 nM | 100 to 1000 nM | < 100 nM | 100 to 1000 nM | 100 to 1000 nM
